In publication PMC12843137, “Fine-Tuning Side Chain Substitutions: Impacts on the Lipophilicity–Solubility–Permeability Interplay in Macrocyclic Peptides” (Marine Drugs, 2025) one finds logD and IC50 data, which are given here for four molecules.

Series [1] in a line: log D7.4 by shake-flask method (1-octanol/PBS). The class given is physicochemical. Conditions: 1-octanol/PBS, pH 7.4, 1-Octanol/PBS pH 7.4, shake-flask. Here is the method:
One explanation for the high IC50 values (i.e., low activity) of the new compounds is their potential poor solubility in aqueous solution or inadequate lipophilicity. To investigate this hypothesis, we determined kinetic solubility in […] phosphate buffer at pH 7.4 (Table 1). […] The remaining two compounds, BE and 29, show low solubilities (<0.1 μM). […] Additionally, since approximately 95% of drugs are ionizable, assessment of lipophilicity at pH 7.4 (log D7.4) is essential during the initial phases of drug discovery. In this study, we employ the shake-flask method to evaluate this property. […] Because lipophilicity directly reflects compound–membrane interaction, the activity of these compounds against PANC-1 cells likely stems from their interaction with the cell membrane.
The basic solution is titrated with the acidic solution to achieve pH 7.4, with the pH verified and adjusted to 7.4 ± 0.1 on the experiment day. Saturated 1-octanol and PBS (pH 7.4) are also prepared. The stock solutions of test compounds and control compound progesterone are prepared in DMSO at a concentration of 10 mM (0.666 mM: compound 39). The detailed procedure for log D determinations can be found in the SI. […]
4. Procedure for log D determinations […]
µL of phosphate buffer saturated 1-octanol to get a concentration of 300 µM working solution. 20 µL of 300 µM compound solution is placed in order into their proper 96-well rack followed by the addition of 980 µL of 1-octanol saturated phosphate buffer. One stir stick is added to each vial and vials are sealed molded PTFE/Silicone plugs. Then the log D plate is transferred to the Eppendorf Thermomixer Comfort plate shaker and shaken at 25°C at 1,100 RPM for 1 h. The assay is performed in duplicate. After completion of 1 h, the stir sticks are removed using a big magnet. The samples are then centrifuged at 25°C at 20,000 g for 20 minutes to separate the phases, and syringe is used to remove the lower (buffer) phases to the empty tubes. Then the buffer phase is diluted with the same volume of acetonitrile/ultrapure water (50%/50%) for LC-MS/MS analysis. 300 µM working solution is diluted with acetonitrile/ultrapure water (50%/50%) to achieve a concentration of 3 µM. Then the 3 µM solution is diluted to 0.3 µM to get the total samples by adding 4 volumes of acetonitrile/ultrapure water (50%/50%) and 5 volumes of 1-octanol saturated Phosphate Buffer for LC-MS/MS analysis. […]
test compounds and control compound is placed in order into their 2.0 mL deep well plate, 500 µL of […]
followed by the addition of 500 µL of saturated PBS (pH 7.4). Seal the plate using a Silicone sealing mat.
Then the log D plate is transferred to the Eppendorf Thermomixer Comfort plate shaker and shaken at 25°C at 2,000 RPM for 2 h. After completion of 2 h, the samples are then centrifuged at 25°C at 3,220 g for 30 minutes to separate the phases, and pipette are used to remove the upper (1-octanol) and lower (buffer) phases to the empty tubes, respectively. Aliquots of 50 µL are taken from upper phases followed by addition of 450 µL of acetonitrile (containing internal standards (IS, 200 nM labetalol, 100 nM tolbutamide and 100 nM ketoprofen)). Mix with a pipette, and then aliquots of 50 µL are taken from the diluent followed by addition of 450 µL of acetonitrile (containing internal standards (IS, 200 nM labetalol, 100 nM tolbutamide and 100 nM ketoprofen)). […]

For another series, the system named is PANC-1 cells. Description: CCK-8 antiproliferative assay, PANC-1. Format: cell-based. As to conditions: Homo sapiens, CCK-8, 72 h, mean of three independent experiments. Here is the method:
The inhibitory activities against human pancreatic cancer PANC-1 cells of the synthesized compounds were evaluated by CCK-8 assay.
Human pancreatic cancer cell lines PANC-1, PATU8988T and BxPC3 were purchased from the Cancer Institute & Hospital of the Chinese Academy of Medical Sciences (Shanghai, China). All three cell lines were cultured in RPMI-DMEM medium containing 10% fetal bovine serum, cultured at a constant temperature of 37 °C in a humidified incubator with 5% CO2.
Pancreatic cancer cells are seeded into 96-well plates. After a proliferation time of 16 h, different concentrations of compounds are added into the corresponding wells and incubated for 72 h. 10 μL of CCK-8 solution is added into each well and incubated for 1–4 h at 37 °C. Shake the plates and read the OD value of each well at 450 nm on a microplate reader.
On the technique in general: Tetrazolium assays rely on reduction of a dye to a coloured formazan, in cell work by metabolically active cells.

For orientation: logD means lipophilicity at a set pH, counting ionised and neutral species. As a reminder, the IC50 is the concentration needed to halve the response being measured. A higher IC50 goes with weaker potency in that assay.

In turn, `CCCCCCCCCCCCCC1OC(=O)CN(C)C(=O)C=CC(CN2CCN(C)CC2)NC(=O)CNC(=O)C(C)(O)C(=O)C1C` (stereo not drawn) [BE-NMP] returned a logD in series [1] above 5.
For `CCCCOc1ccc(-c2ccc(-c3ccc(Cn4cc(CCCCC[C@H]5OC(=O)CN(C)C(=O)/C=C/[C@@H](CN6CCN(C)CC6)NC(=O)CNC(=O)[C@@](C)(O)C(=O)[C@H]5C)nn4)cc3)cc2)cc1` [Compound 29], the IC50 in the series with PANC-1 cells is above 100 µM. In addition, in series [1], the logD was 3.87.
Take `CC1C(=O)C(C)(O)C(=O)NCC(=O)NC(CN2CCN(C)CC2)C=CC(=O)N(C)CC(=O)OC1CCCCc1cn(CCCCCCCCNC(=N)N)nn1` (stereo not drawn) [Compound 31]: the IC50 in the series with PANC-1 cells was above 100 µM.
As to `C[C@@H]1C(=O)[C@](C)(O)C(=O)NCC(=O)N[C@H](CN2CCN(C)CC2)/C=C/C(=O)N(C)CC(=O)O[C@H]1CCCCCc1cn(CCCCCCCNc2cccc3c2CN(C2CCC(=O)NC2=O)C3=O)nn1` (stereo partly drawn) [Compound 40], the IC50 with PANC-1 cells was above 100 µM. This molecule also displayed a logD in series [1] of 0.93.
